Source: patent US9238656B2, “Imidazo[4,5-b]pyridine derivatives as ALK and JAK modulators for the treatment of proliferative disorders” (priority 2012, dated 2016)
Counter-ions that a name gives are not always drawn. Like-named read-outs stand apart in the source and are kept apart here.

How the values were obtained:
[1] = target: baculovirus-expressed ALK (Homo sapiens, UniProt Q9UM73); assay: ALK kinase inhibition, TRF/ELISA; format: biochemical; conditions: read-out: ALK Potency
Method: Briefly, each 96-well plate was coated with 100 μL/well of 10 μg/mL substrate (GST-PLC-γ) in Tris-buffered saline (TBS). […] The reaction was initiated by adding enzyme (30 ng/mL ALK) and was allowed to proceed at 37° C. for 15 minutes. Detection of the phosphorylated product was performed by adding 100 μL/well of Eu-N1 labeled PT66 antibody (Perkin Elmer #AD0041). […] Data analysis was performed using ActivityBase (IDBS, Guilford, UK). IC50 values were calculated by plotting percent inhibition versus log10 of the concentration of compound and fitting to the nonlinear regression sigmoidal dose-response (variable slope) equation in XLFit (IDBS, Guilford, UK).

[2] = target: baculovirus-expressed JAK2 kinase (Homo sapiens, UniProt O60674); assay: biochemical; conditions: read-out: JAK2 Potency
Method: Compounds were tested for their ability to inhibit the kinase activity of baculovirus-expressed JAK2 kinase using the time-resolved fluorescence (TRF) detection system. […] The plates were coated with 100 μL/well of 10 μg/mL Neutravidin (Pierce #31000, Rockford, Ill.) in TBS at 37° C. for 2 h, followed by 100 μL/well of 1 μg/mL 15-mer peptide substrate (biotinyl-amino-hexanoyl-[…]-amide, Infinity Biotech Research and Resource, Aston, Pa.) at 37° C. for 1 h. […] Enzyme (15 ng/mL JAK2) was added and the reaction was allowed to proceed at room temperature for 20 min. […] Inhibition data were analyzed using ActivityBase (IDBS, Guilford, UK). IC50 values were calculated by plotting percent inhibition versus log10 of the concentration of compound and fitting to the nonlinear regression sigmoidal dose-response (variable slope) equation in XLFit (IDBS, Guilford, UK).

Sequence of baculovirus-expressed JAK2 kinase (O60674 whole entry): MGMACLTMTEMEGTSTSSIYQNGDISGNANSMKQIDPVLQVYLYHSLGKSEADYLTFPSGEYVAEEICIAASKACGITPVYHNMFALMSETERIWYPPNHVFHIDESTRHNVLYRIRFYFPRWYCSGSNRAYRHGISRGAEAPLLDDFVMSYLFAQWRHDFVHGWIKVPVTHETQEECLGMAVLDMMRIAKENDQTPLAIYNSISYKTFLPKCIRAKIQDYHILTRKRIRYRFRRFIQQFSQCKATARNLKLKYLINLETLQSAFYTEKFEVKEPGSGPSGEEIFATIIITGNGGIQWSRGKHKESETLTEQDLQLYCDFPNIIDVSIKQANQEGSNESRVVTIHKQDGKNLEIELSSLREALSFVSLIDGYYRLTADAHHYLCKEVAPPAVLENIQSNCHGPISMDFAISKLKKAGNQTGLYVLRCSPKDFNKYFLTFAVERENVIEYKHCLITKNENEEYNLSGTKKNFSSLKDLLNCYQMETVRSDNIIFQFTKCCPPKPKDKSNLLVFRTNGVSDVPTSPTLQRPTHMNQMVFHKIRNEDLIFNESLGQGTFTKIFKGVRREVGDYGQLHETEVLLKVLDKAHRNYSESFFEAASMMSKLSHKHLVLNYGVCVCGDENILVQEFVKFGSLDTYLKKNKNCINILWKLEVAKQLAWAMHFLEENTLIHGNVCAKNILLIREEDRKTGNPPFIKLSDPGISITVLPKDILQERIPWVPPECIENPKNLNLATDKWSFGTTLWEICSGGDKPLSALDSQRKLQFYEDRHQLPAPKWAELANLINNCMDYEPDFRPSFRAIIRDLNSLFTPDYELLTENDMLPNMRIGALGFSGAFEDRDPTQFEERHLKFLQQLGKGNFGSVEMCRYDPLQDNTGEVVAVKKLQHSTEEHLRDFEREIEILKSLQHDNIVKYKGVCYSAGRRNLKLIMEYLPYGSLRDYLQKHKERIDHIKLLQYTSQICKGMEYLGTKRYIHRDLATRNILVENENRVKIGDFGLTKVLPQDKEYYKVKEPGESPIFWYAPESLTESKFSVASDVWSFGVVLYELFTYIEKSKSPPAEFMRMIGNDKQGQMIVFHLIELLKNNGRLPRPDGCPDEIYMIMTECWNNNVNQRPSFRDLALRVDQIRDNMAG
Sequence of baculovirus-expressed ALK (Q9UM73 19-1620): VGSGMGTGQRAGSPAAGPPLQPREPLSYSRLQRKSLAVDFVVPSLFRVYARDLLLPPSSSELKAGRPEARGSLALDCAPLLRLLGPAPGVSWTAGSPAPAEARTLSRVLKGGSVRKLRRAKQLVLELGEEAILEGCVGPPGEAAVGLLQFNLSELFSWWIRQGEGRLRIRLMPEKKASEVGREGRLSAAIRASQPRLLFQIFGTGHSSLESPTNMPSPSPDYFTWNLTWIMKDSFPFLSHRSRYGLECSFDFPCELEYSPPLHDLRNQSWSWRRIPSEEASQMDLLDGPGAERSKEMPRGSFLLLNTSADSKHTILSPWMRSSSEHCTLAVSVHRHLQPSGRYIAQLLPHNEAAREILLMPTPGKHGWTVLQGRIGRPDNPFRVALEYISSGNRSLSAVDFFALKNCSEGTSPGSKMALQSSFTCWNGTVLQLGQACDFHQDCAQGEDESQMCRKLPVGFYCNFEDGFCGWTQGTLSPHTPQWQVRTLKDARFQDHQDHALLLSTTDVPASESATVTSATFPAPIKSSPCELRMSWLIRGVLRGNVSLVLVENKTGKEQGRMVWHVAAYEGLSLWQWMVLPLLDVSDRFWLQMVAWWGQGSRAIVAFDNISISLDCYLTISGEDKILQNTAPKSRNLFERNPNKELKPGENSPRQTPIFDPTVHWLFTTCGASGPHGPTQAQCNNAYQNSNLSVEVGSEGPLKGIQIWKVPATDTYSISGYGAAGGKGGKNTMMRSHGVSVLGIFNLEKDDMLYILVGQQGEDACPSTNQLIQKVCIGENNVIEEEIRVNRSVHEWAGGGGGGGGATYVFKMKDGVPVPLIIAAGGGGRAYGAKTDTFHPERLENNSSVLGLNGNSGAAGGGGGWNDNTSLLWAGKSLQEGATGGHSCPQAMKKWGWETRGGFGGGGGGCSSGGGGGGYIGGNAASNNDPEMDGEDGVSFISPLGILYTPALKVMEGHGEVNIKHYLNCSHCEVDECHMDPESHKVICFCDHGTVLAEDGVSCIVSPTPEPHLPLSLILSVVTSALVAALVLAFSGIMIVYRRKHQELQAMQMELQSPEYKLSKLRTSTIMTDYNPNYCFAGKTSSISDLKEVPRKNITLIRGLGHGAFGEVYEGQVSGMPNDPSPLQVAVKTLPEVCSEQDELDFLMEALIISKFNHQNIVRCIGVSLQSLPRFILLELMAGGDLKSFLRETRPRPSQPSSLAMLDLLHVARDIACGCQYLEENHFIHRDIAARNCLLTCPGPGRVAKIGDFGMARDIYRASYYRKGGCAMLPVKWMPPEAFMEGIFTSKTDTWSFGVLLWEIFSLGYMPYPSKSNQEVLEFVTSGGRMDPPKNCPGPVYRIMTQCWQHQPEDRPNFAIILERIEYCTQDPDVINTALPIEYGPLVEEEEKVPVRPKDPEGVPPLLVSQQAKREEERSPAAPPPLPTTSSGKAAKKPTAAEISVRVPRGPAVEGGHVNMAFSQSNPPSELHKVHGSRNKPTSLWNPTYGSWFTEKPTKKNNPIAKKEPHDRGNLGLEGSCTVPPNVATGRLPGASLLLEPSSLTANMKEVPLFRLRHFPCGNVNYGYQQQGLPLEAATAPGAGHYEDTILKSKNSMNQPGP

For CN(C)c1ccc(-c2nc3c(N[C@H]4[C@@H](C(N)=O)[C@@H]5C=C[C@H]4C5)c(Cl)cnc3[nH]2)cc1 [Compound I, (1S,2S,3R,4R)-3-[6-Chloro-2-(4-dimethylamino-phenyl)-3H-imidazo[4,5-b]pyridin-7-ylamino]-bicyclo[2.2.1]hept-5-ene-2-carboxylic acid amide], the IC50 [1] was less than 0.1 µM and the IC50 ([2]; 0.2 μM ATP) was less than 0.1 µM.
For CN1CCN(c2nc(Cl)c(-c3nc4c(N[C@H]5[C@@H](C(N)=O)[C@@H]6C=C[C@H]5C6)c(Cl)cnc4[nH]3)s2)CC1 [Compound CCXII, (1S,2S,3R,4R)-3-(6-chloro-2-(4-chloro-2-(4-methylpiperazin-1-yl)thiazol-5-yl)-3H-imidazo[4,5-b]pyridin-7-ylamino)bicyclo[2.2.1]hept-5-ene-2-carboxamide], the IC50 [1] was less than 0.1 µM and the IC50 ([2]; 0.2 μM ATP) was less than 0.1 µM.
For COc1ccc(-c2nc3c(N[C@H]4[C@@H](C(N)=O)[C@@H]5C=C[C@H]4C5)c(Cl)cnc3[nH]2)c(C2CCN(C[C@H](O)CO)CC2)c1 [Compound XXXIII], the IC50 [1] was 0.1 to 1 µM and the IC50 ([2]; 0.2 μM ATP) was 0.1 to 1 µM.
For NC(=O)[C@@H]1[C@H](Nc2c(Cl)cnc3[nH]c(-c4ccccc4Cl)nc23)[C@H]2C=C[C@@H]1C2 [Compound CXLVIII, (1S,2S,3R,4R)-3-[6-Chloro-2-(2-chloro-phenyl)-3H-imidazo[4,5-b]pyridin-7-ylamino]-bicyclo[2.2.1]hept-5-ene-2-carboxylic acid amide], the IC50 [1] was 0.1 to 1 µM and the IC50 ([2]; 0.2 μM ATP) was less than 0.1 µM.
Work on COc1cc(CN(C)C)ccc1-c1nc2c(N[C@H]3[C@@H](C(N)=O)[C@@H]4C=C[C@H]3C4)c(Cl)cnc2[nH]1 [Compound XLVI, (1S,2S,3R,4R)-3-[6-Chloro-2-(4-dimethylaminomethyl-2-methoxyphenyl)-3H-imidazo[4,5-b]pyridine-7-ylamino)-bicyclo[2.2.1]hept-5-ene-2-carboxylic acid amide, trifluoroacetic acid salt] yielded an IC50 [1] of less than 0.1 µM and an IC50 ([2]; 0.2 μM ATP) of less than 0.1 µM.
With COc1cc(C2=CCN(C[C@H](C)O)CC2)ccc1-c1nc2c(N[C@H]3[C@@H](C(N)=O)[C@@H]4C=C[C@H]3C4)c(Cl)cnc2[nH]1 [Compound XLVIII, (1S,2S,3R,4R)-3-(6-Chloro-2-[4-[1((S)-2-hydroxypropyl)-1,2,3,6-tetrahydro-pyridin-4-yl]-2-methoxyphenyl]-3H-imidazo[4,5-b]pyridine-7-ylamino)-bicyclo[2.2.1]hept-5-ene-2-carboxylic acid amide] the IC50 [1] was less than 0.1 µM and the IC50 ([2]; 0.2 μM ATP) was less than 0.1 µM.
For NC(=O)[C@@H]1[C@H](Nc2c(Cl)cnc3[nH]c(-c4cccnc4N4CCOCC4)nc23)[C@H]2C=C[C@@H]1C2 [Compound XXXIV, (1S,2S,3R,4R)-3-[6-Chloro-2-(2-morpholin-4-yl-pyridin-3-yl)-3H-imidazo[4,5-b]pyridine-7-ylamino]-bicyclo[2.2.1]hept-5-ene-2-carboxylic acid amide], the IC50 [1] was 1 to 10 µM and the IC50 ([2]; 0.2 μM ATP) was greater than 10 µM.
For CN(C)CCOc1cccc(-c2nc3c(N[C@H]4[C@@H](C(N)=O)[C@@H]5C=C[C@H]4C5)c(Cl)cnc3[nH]2)c1 [Compound CCXLVII, (1S,2S,3R,4R)-3-(6-chloro-2-(3-(2-(dimethylamino)ethoxy)phenyl)-3H-imidazo[4,5-b]234yridine-7-ylamino)pyridin[2.2.1]hept-5-ene-2-carboxamide], the IC50 [1] was less than 0.1 µM and the IC50 ([2]; 0.2 μM ATP) was less than 0.1 µM.
For COc1ccc(-c2nc3c(N[C@H]4[C@@H](C(N)=O)[C@@H]5C=C[C@H]4C5)c(Cl)cnc3[nH]2)cc1 [Compound VI, (1S,2S,3R,4R)-3-[6-Chloro-2-(4-methoxy-phenyl)-3H-imidazo[4,5-b]pyridine-7-ylamino]-bicyclo[2.2.1]hept-5-ene-2-carboxylic acid amide], the IC50 ([2]; 0.2 μM ATP) was less than 0.1 µM.
For CN1CCN(c2ccc(-c3nc4c(N[C@@H]5[C@H](C(N)=O)[C@H]6C=C[C@@H]5C6)c(Cl)cnc4[nH]3)cc2)CC1 [Compound XXVI, (1R,2R,3S,4S)-3-{6-Chloro-2-[4-(4-methyl-piperazin-1-yl)-phenyl]-3H-imidazo[4,5-b]pyridine-7-ylamino}-bicyclo[2.2.1]hept-5-ene-2-carboxylic acid amide], the IC50 ([2]; 0.2 μM ATP) was less than 0.1 µM.
Work on NC(=O)[C@@H]1[C@H](Nc2c(Cl)cnc3[nH]c(-c4cnn(C5CCNCC5)c4)nc23)[C@H]2C=C[C@@H]1C2 [Compound LVII, (1S,2S,3R,4R)-3-[6-Chloro-2-(1-piperidin-4-yl-1H-pyrazol-4-yl)-3H-imidazo[4,5-b]pyridine-7-ylamino]-bicyclo[2.2.1]hept-5-ene-2-carboxylic acid amide] yielded an IC50 ([2]; 0.2 μM ATP) of less than 0.1 µM.
“4-{2-[7-((1R,2R,3S,4S)-3-Carbamoyl-bicyclo[2.2.1]hept-5-en-2-ylamino)-6-chloro-3H-imidazo[4,5-b]pyridine-2-yl}-5-methoxy-phenyl]-piperidinej-1-carboxylic acid tert-butyl ester [Compound XXIX]” showed an IC50 [2] of 1 to 10 µM.
For COc1ccccc1-c1nc2c(N[C@H]3[C@@H](C(N)=O)[C@@H]4C=C[C@H]3C4)c(Cl)cnc2[nH]1 [Compound IX, (1S,2S,3R,4R)-3-[6-Chloro-2-(2-methoxy-phenyl)-3H-imidazo[4,5-b]pyridine-7-ylamino]-bicyclo[2.2.1]hept-5-ene-2-carboxylic acid amide], the IC50 ([2]; 0.2 μM ATP) was less than 0.1 µM.
COc1cc(N2CCC(N3CCN(C)CC3)CC2)ccc1-c1nc2c(N[C@H]3[C@@H](C(N)=O)[C@@H]4C=C[C@H]3C4)c(Cl)cnc2[nH]1 [Compound XXIII, (1S,2S,3R,4R)-3-(6-Chloro-2-{2-methoxy-4-[4-(4-methyl-piperazin-1-yl)-piperidin-1-yl]-phenyl}-3H-imidazo[4,5-b]pyridin-7-ylamino)-bicyclo[2.2.1]hept-5-ene-2-carboxylic acid amide] showed an IC50 ([2]; 0.2 μM ATP) of less than 0.1 µM.
Work on COc1cccc(-c2nc3c(N[C@H]4[C@@H](C(N)=O)[C@@H]5C=C[C@H]4C5)c(Cl)cnc3[nH]2)c1 [Compound V, (1S,2S,3R,4R)-3-[6-Chloro-2-(3-methoxy-phenyl)-3H-imidazo[4,5-b]pyridin-7-ylamino]-bicyclo[2.2.1]hept-5-ene-2-carboxylic acid amide] yielded an IC50 ([2]; 0.2 μM ATP) of less than 0.1 µM.
With CN1CCN(c2ccc(-c3nc4c(N[C@H]5[C@@H](C(N)=O)[C@@H]6C=C[C@H]5C6)c(Cl)cnc4[nH]3)cc2)CC1 [Compound X, (1S,2S,3R,4R)-3-{6-Chloro-2-[4-(4-methyl-piperazin-1-yl)-phenyl]-3H-imidazo[4,5-b]pyridine-7-ylamino}-bicyclo[2.2.1]hept-5-ene-2-carboxylic acid amide trifluoroacetic acid salt] the IC50 ([2]; 0.2 μM ATP) was less than 0.1 µM.
COc1cc(N2CCN(C)CC2)ccc1-c1nc2c(N[C@@H]3[C@H](C(N)=O)[C@H]4C=C[C@@H]3C4)c(Cl)cnc2[nH]1 [Compound XXVIII, (1R,2R,3S,4S)-3-{6-Chloro-2-[2-methoxy-4-(4-methyl-piperazin-1-yl)-phenyl]-3H-imidazo[4,5-b]pyridin-7-ylamino}-bicyclo[2.2.1]hept-5-ene-2-carboxylic acid amide] gave an IC50 ([2]; 0.2 μM ATP) of 0.1 to 1 µM.
In the case of NC(=O)[C@@H]1[C@H](Nc2c(Cl)cnc3[nH]c(-c4cccc(N5CCOCC5)c4)nc23)[C@H]2C=C[C@@H]1C2 [Compound VII, (1S,2S,3R,4R)-3-[6-Chloro-2-(3-morpholin-4-yl-phenyl)-3H-imidazo[4,5-b]pyridine-7-ylamino]-bicyclo[2.2.1]hept-5-ene-2-carboxylic acid amide], the IC50 ([2]; 0.2 μM ATP) is reported as less than 0.1 µM.
In the case of Cn1cc(-c2nc3c(N[C@H]4[C@@H](C(N)=O)[C@@H]5C=C[C@H]4C5)c(Cl)cnc3[nH]2)cn1 [Compound VIII, (1S,2S,3R,4R)-3-[6-Chloro-2-(1-methyl-1H-pyrazol-4-yl)-3H-imidazo[4,5-b]pyridine-7-ylamino]-bicyclo[2.2.1]hept-5-ene-2-carboxylic acid amide], the IC50 ([2]; 0.2 μM ATP) is reported as less than 0.1 µM.
NC(=O)[C@@H]1[C@H](Nc2c(Cl)cnc3[nH]c(-c4ccc(N5CCOCC5)cc4)nc23)[C@H]2C=C[C@@H]1C2 [Compound IV, (1S,2S,3R,4R)-3-[6-Chloro-2-(4-morpholin-4-yl-phenyl)-3H-imidazo[4,5-b]pyridine-7-ylamino]-bicyclo[2.2.1]hept-5-ene-2-carboxylic acid amide] showed an IC50 ([2]; 0.2 μM ATP) of less than 0.1 µM.
For NC(=O)[C@H]1[C@@H](Nc2c(Cl)cnc3[nH]c(-c4cccc(N5CCOCC5)c4)nc23)[C@@H]2C=C[C@H]1C2 [Compound XXV, (1R,2R,3S,4S)-3-[6-Chloro-2-(3-morpholin-4-yl-phenyl)-3H-imidazo[4,5-b]pyridine-7-ylamino]-bicyclo[2.2.1]hept-5-ene-2-carboxylic acid amide], the IC50 ([2]; 0.2 μM ATP) was 0.1 to 1 µM.
For COc1cc(N2CCN(C)CC2)ccc1-c1nc2c(N[C@H]3[C@@H](C(N)=O)[C@@H]4C=C[C@H]3C4)c(Cl)cnc2[nH]1 [Compound XXI, (1S,2S,3R,4R)-3-{6-Chloro-2-[2-methoxy-4-(4-methyl-piperazin-1-yl)-phenyl]-3H-imidazo[4,5-b]pyridin-7-ylamino}-bicyclo[2.2.1]hept-5-ene-2-carboxylic acid amide trifluoroacetic acid salt], the IC50 ([2]; 0.2 μM ATP) was less than 0.1 µM.
